Series [1] has as its system N. benthamiana plants. Put plainly: Transient hIL-12 expression after vacuum co-infiltration, Western blot and densitometry. In kind it is in vivo. The settings on record: for increase in hIL-12 expression (semi-quantitative densitometry): 20 mM AsA in induction medium, vs construct alone. How it is done: Transient infiltration was done according Medrano et al (2009), with some modifications as follows. Briefly, an A. tumefaciens inoculum integrated with the binary vector pBIB-Kan encoding IL-12 was cultured under standard conditions for 2 days at 28° C. The bacterial cultures were centrifuged and resuspended to a final OD600 of 0.2-0.8, in 400 mL of a induction medium (“IM”; 0.5× Murashige and Skoog basal medium salts, 1× MS vitamins, 5% sucrose, 1× benzylaminopurine, 200 μM acetosyringone, pH 5.5). The cultures were incubated in 1M for ≥3 h at 28° C. Vacuum infiltration of 4-5-week-old N. benthamiana was accomplished by inverting a plant into a 400 mL glass beaker containing IM, ensuring that all leaves of the plant are immersed in the media. The beaker was placed in a vacuum desiccator unit (240-mm inner diameter) and using a vacuum pump, maximum pressure (˜25 in. Hg) was applied for 2 min and then quickly released. Additional plants were subject to infiltration using the same construct/antioxidant culture, or replaced with a new beaker of IM containing another construct/antioxidant culture. A single IM culture was used for infiltrating typically 3 but up to 10 independent plants with no adverse effect on the amount of transgene product expressed and presence of exogenously introduced antioxidant in planta respectively. Infiltrated plants were returned to the environmental chamber at conditions established previously during plant growth. […]
(§1) Vitamin E and vitamin K were solubilized in chloroform and kept on amber tube on ice. The final concentration range of vitamins E and K tested were 5-100 μM.
(§2) Samples were resolved by SDS-PAGE (run under denaturing or reducing conditions) and Western immunoblotting analysis performed. For hIL-12 detection, primary antibody anti-human IL-12 (1:1000 v/v; R&D Systems) and secondary antibody anti-goat IgG-alkaline phosphatase conjugated (1:10,000 v/v; BIORAD®) was used. For chIL-12 detection, anti-6×His (C-term)-alkaline phosphatase conjugated (1:2000 v/v; Invitrogen) was used. Detection on immunoblots was carried out using the CDP-Star chemiluminescent substrate for alkaline phosphatase (Roche, Indianapolis, Ind.) and NitroBlock. Enhancer II (Tropix Inc., Bedford, Mass.) in accordance with manufacturers' procedures. Densitometry using the BIORAD® VERSDOC4000™ and QUANT-1® software package was employed and relative protein expression was determined in order to evaluate the effect of antioxidants on plant-made protein expression.

Series [2] relates to N. benthamiana plants. Put plainly: Transient chIL-12 expression after vacuum co-infiltration, anti-his Western blot and densitometry. The class given is in vivo. As to the method:
Transient infiltration was done according Medrano et al (2009), with some modifications as follows. Briefly, an A. tumefaciens inoculum integrated with the binary vector pBIB-Kan encoding IL-12 was cultured under standard conditions for 2 days at 28° C. The bacterial cultures were centrifuged and resuspended to a final OD600 of 0.2-0.8, in 400 mL of a induction medium (“IM”; 0.5× Murashige and Skoog basal medium salts, 1× MS vitamins, 5% sucrose, 1× benzylaminopurine, 200 μM acetosyringone, pH 5.5). The cultures were incubated in 1M for ≥3 h at 28° C. Vacuum infiltration of 4-5-week-old N. benthamiana was accomplished by inverting a plant into a 400 mL glass beaker containing IM, ensuring that all leaves of the plant are immersed in the media. The beaker was placed in a vacuum desiccator unit (240-mm inner diameter) and using a vacuum pump, maximum pressure (˜25 in. Hg) was applied for 2 min and then quickly released. Additional plants were subject to infiltration using the same construct/antioxidant culture, or replaced with a new beaker of IM containing another construct/antioxidant culture. A single IM culture was used for infiltrating typically 3 but up to 10 independent plants with no adverse effect on the amount of transgene product expressed and presence of exogenously introduced antioxidant in planta respectively. Infiltrated plants were returned to the environmental chamber at conditions established previously during plant growth. In the case of both model transgene constructs, leaves were harvested from plants at 48 h post-infiltration and stored at −80° C. for subsequent analyses.
Vitamin E and vitamin K were solubilized in chloroform and kept on amber tube on ice. […]
(§3) Samples were resolved by SDS-PAGE (run under denaturing or reducing conditions) and Western immunoblotting analysis performed. […] Densitometry using the BIORAD® VERSDOC4000™ and QUANT-1® software package was employed and relative protein expression was determined in order to evaluate the effect of antioxidants on plant-made protein expression.

The test system of series [3] is plant transient bioproduction system. Put plainly: Transient expression of a 94 kDa human glycoprotein, Western blot. The class given is in vivo. Particulars: 20 mM co-infiltrated AsA, 72 hrs post-infiltration. How it is done:
Transient infiltration was done according Medrano et al (2009), with some modifications as follows. Briefly, an A. tumefaciens inoculum integrated with the binary vector pBIB-Kan encoding IL-12 was cultured under standard conditions for 2 days at 28° C. The bacterial cultures were centrifuged and resuspended to a final OD600 of 0.2-0.8, in 400 mL of a induction medium (“IM”; 0.5× Murashige and Skoog basal medium salts, 1× MS vitamins, 5% sucrose, 1× benzylaminopurine, 200 μM acetosyringone, pH 5.5). The cultures were incubated in 1M for ≥3 h at 28° C. Vacuum infiltration of 4-5-week-old N. benthamiana was accomplished by inverting a plant into a 400 mL glass beaker containing IM, ensuring that all leaves of the plant are immersed in the media. The beaker was placed in a vacuum desiccator unit (240-mm inner diameter) and using a vacuum pump, maximum pressure (˜25 in. Hg) was applied for 2 min and then quickly released. […]
as §3
(In general: In western blotting, separated proteins are transferred to a membrane and probed.)

Series [4] concerns transient system host plants. Put plainly: Foliar ascorbate content of infiltrated host plants, ascorbate oxidase assay. In kind it is in vivo, N. benthamiana. The settings on record: increasing infiltrated AsA. As to the method: Leaf tissue ground in the presence of liquid nitrogen with mortar/pestle was extracted. The foliar vitamin C content was determined by the ascorbate oxidase assay as previously described (Lorence et al., 2004). Briefly, tissue samples were harvested and immediately frozen in liquid nitrogen and stored at -80° C. till analysis. Samples were ground in 6% (w/v) meta-phosphoric acid, and centrifuged at 15,000×g for 10 min. Reduced vitamin C (a.k.a. ascorbate) was determined by measuring the decline in […] (extinction coefficient of 14.3 cm^-1 mM^-1) after addition of 1 unit of ascorbate oxidase (Sigma) to 1 mL of the reaction mix including tissue extract and 100 mM potassium phosphate (pH 6.9). […] Foliar ascorbate content was determined by a microplate reader-based method described herein. […] Reduced ascorbate was determined in a 300 μL reaction in triplicates by adding 275 μL of 0.1M of potassium phosphate buffer pH 6.9 into a 96-well plate (UV Flat Bottom Microplate, Thermo Scientific) containing 15 μL of sample supernatant. The mix was measured at […] and recorded. The decline in […] was measured after addition of 10 μL (1 U) of ascorbate oxidase (final concentration 0.0033 units of ascorbate oxidase, Sigma). […] The mix was measured at […] and recorded. […] […] was measure using a plate reader (model Power Wave XS, software KC Junior, Biotek).

The subject of a further series is H2O2 in leaves. Put plainly: In situ H2O2 detection in leaves, DAB staining. In kind it is in vivo, N. benthamiana. An excerpt:
Staining for H2O2 in leaves which correlates with the presence of reactive oxygen species (ROS) is detected by an endogenous peroxidase-dependent staining procedure, using 3,3-diaminobenzidine (DAB). This assay provides a comparative in situ measure of the ROS levels in planta (Thordal-Christensen et al., 1997).

The test system of a further series is host plants. Kind of series: Toxicity of infiltrated antioxidant to the host plant (necrosis). Particulars: for toxicity to the plant: 100 μM. As to the method:
Transient infiltration was done according Medrano et al (2009), with some modifications as follows. Briefly, an A. tumefaciens inoculum integrated with the binary vector pBIB-Kan encoding IL-12 was cultured under standard conditions for 2 days at 28° C. The bacterial cultures were centrifuged and resuspended to a final OD600 of 0.2-0.8, in 400 mL of a induction medium (“IM”; 0.5× Murashige and Skoog basal medium salts, 1× MS vitamins, 5% sucrose, 1× benzylaminopurine, 200 μM acetosyringone, pH 5.5). The cultures were incubated in 1M for ≥3 h at 28° C. Vacuum infiltration of 4-5-week-old N. benthamiana was accomplished by inverting a plant into a 400 mL glass beaker containing IM, ensuring that all leaves of the plant are immersed in the media. The beaker was placed in a vacuum desiccator unit (240-mm inner diameter) and using a vacuum pump, maximum pressure (˜25 in. Hg) was applied for 2 min and then quickly released. Additional plants were subject to infiltration using the same construct/antioxidant culture, or replaced with a new beaker of IM containing another construct/antioxidant culture. […] Infiltrated plants were returned to the environmental chamber at conditions established previously during plant growth. In the case of both model transgene constructs, leaves were harvested from plants at 48 h post-infiltration and stored at −80° C. for subsequent analyses.
as §1

The subject of another series is N. benthamiana leaves. Put plainly: Recovery of purified hIL-12, heterodimer-specific hIL-12 ELISA. The class given is in vivo. The settings on record: 20 mM exogenously added AsA vs no antioxidant. How it is done: The amount of hIL-12 expressed in N. benthamiana leaves in the presence or absence of modified antioxidants levels during bioproduction was quantitated using a commercially available heterodimer-specific hIL-12 enzyme-linked immunoabsorbant assay (ELISA) (R&D Systems). To assay hIL-12, leaves were ground in PBS buffer (137 mM NaCl, 2.7 mM KCl, 10.1 mM Na2HPO4, and […] KH2PO4 pH 7.0) at a 1:2 (w/v) ratio and supernatant extracts were analyzed by the ELISA. For hIL-12 detection, the ELISA used monoclonal antibodies specific for hIL-12 p70 for capture (0.2 μg/mL) and biotinylated anti-human IL-12 antibody for detection (4 μg/mL). Streptavidin-HRP (1:200 v/v) was used for chemiluminescence and 3,3′,5,5′-tetramethylbenzidine (TMB; KPL) as a substrate for detection. Densitometry using the BIORAD® VERSDOC4000™ and QUANT-1® software package was employed and was established relative protein expression in order to evaluate the impact of antioxidants on its expression in plants.

A further series deals with Stable N. tabacum lines. Put plainly: hIL-12 expression in stable transgenic lines after vacuum infiltration, Western blot. The class given is in vivo. The settings on record: AsA in IM media, leaves 24 and 48 h. As to the method:
as §2
This finding further supports the concept that increasing the antioxidant capacity of the host plant enhances the overall biosynthesis of the plant in serving as a factory for recombinant protein production.

On to `O=C1O[C@H]([C@@H](O)CO)C(O)=C1O` [AsA, ascorbic acid], for which the “hIL-12 protein expression levels, dose response” value in the series with N. benthamiana plants [1] (0, 20, 40, 60 mM AsA) is “dose dependent increase”. In addition, the “increase in hIL-12 expression (semi-quantitative densitometry)” value is given as 25-30% in the series on N. benthamiana plants [1] and about 25% with N. benthamiana plants [1] (listed as vitamin C). Also, in the series with N. benthamiana plants [1] (20 mM co-infiltrated AsA vs construct alone), the “monomeric, single-chain hIL12 on Western blot” value is “significant increase”. For the same compound, the “oligomer formation of hIL-12” value in the series with N. benthamiana plants [1] (48 and 72 h post-infiltration, vs 0 mM AsA) is “abrogates oligomer formation of hIL-12”. Besides, the “time hIL-12 is sustained in planta” value in the series on N. benthamiana plants [1] (co-infiltrated AsA vs 0 mM AsA) is recorded as “up to 72 h”. For the same compound, the “effective dose range for recombinant protein production” value with N. benthamiana plants [1] (plant transient infiltration system) lay within 20 to 60 mM. Also, in the series on N. benthamiana plants [2] (20 mM AsA, 48 h post-infiltration, on average), the “increase in chIL-12 protein expression” value is listed as about 3 fold. Further, in series [3], the “stable accumulation of 94 kDa human glycoprotein” value is “enhanced”. In series [4], the “in planta foliar AsA levels” value is listed as “dose-dependent increase”. In addition, the figures for the “H2O2 staining (DAB)” value in the series with H2O2 in leaves (80 mM AsA), with H2O2 in leaves (100 mM AsA) and with H2O2 in leaves (20 to 60 mM AsA) were “some staining”, “clearly detectable” and “minimal”, respectively. Further, the “effect on leaves/cells of host plants” value is given as “began to show signs of necrosis” in the series on host plants (80 mM); “detrimental” with host plants (80 mM, listed as vitamin C); “significant necrotic lesions” in the series with host plants (100 mM); “detrimental” with host plants (100 mM, listed as vitamin C). Besides, the “more purified hIL12 product recovered (ELISA)” value in the series with N. benthamiana leaves is given as 20-25%. The “hIL-12 protein levels in stable transgenic plants” value in the series with Stable N. tabacum lines is reported as “increasing the overall expression of hIL-12 protein levels”.
vitamin E: the “transient hIL-12 expression” value in the series with N. benthamiana plants [1] (vitamin E alone) is reported as “no effect on expression”. Further, in the series on N. benthamiana plants [2] (50-100 μM), the “chIL12 protein production at higher concentrations” value is recorded as “reduced improvement in protein production”. Moreover, the “concentration with greatest impact in transient chIL12 protein expression” value in the series on N. benthamiana plants [2] (dose-response 5-100 mM) worked out at 20 µM. Also, in the series with host plants, the “toxicity to the plant” value is reported as “appeared to be toxic”.
For vitamin K, the “toxicity to the plant” value in the series on host plants is “detrimental”.
